Measured values: patent US20240116985A1, “STAPLED PEPTIDES AND METHODS THEREOF” (priority 2020, published 2024)
pEC50: −log10 of the molar value.

How the values were obtained:
[1] = CHI Log D procedure; assay type: physicochemical; settings: for chromatographic logD: pH 7.4, CHI Log D; for CHI Log D: pH 7.4
[2] = target: T1, full-length B-Catenin (Uniprot ID P35222) (Homo sapiens, UniProt P35222); experiment: Alphascreen binding assay (beta-catenin / biotin-TCF4 10-53)
T1 construct: 65 nM full-length B-Catenin (Uniprot ID P35222)
T1 sequence (P35222 1-781): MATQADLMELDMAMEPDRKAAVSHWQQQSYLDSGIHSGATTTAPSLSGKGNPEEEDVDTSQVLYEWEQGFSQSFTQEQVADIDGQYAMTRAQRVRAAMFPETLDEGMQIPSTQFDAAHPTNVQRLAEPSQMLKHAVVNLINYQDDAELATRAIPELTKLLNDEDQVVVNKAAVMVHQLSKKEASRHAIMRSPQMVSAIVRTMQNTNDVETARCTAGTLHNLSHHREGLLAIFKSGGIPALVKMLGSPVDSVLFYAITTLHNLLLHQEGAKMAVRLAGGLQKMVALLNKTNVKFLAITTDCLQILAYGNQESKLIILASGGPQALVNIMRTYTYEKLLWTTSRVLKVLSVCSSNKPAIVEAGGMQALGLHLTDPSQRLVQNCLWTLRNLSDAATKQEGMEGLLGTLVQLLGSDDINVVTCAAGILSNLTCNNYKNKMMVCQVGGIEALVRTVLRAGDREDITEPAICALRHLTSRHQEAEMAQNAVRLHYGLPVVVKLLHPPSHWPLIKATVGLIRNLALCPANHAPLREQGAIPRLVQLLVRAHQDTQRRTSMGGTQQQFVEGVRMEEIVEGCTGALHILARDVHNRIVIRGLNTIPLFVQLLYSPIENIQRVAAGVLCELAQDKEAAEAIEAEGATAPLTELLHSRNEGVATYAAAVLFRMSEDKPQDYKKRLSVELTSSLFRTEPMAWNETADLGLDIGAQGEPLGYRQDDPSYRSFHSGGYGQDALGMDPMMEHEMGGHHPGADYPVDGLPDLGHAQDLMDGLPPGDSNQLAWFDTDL
Method in brief: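 AlphaScreen (Ni-chelate beads) competition in 50 mM Tris pH 8.0, 250 mM NaCl with detergents and 0.1% BSA. Peptide titrated 10 uM–5 nM against 65 nM human β-catenin bound to 10 nM biotinylated TCF4 10-53, 15 min then 60 min with beads, both at 20 °C; 1:1 Hill-slope fit.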

Structure (SMILES) | chromatographic logD [1] | pEC50 [2] | CHI Log D [1]
CC(=O)N1CCC[C@]12CC=CCCCC1(CCCC=CCCCCCC[C@@](C)(C(=O)N[C@@H](Cc3ccccc3)C(=O)N[C@@H](Cc3c[nH]c4ccccc34)C(=O)N[C@@H](CCC(N)=O)C(N)=O)NC(=O)[C@H](C(C)C)NC(=O)[C@H](Cc3ccccc3)NC(=O)[C@H](C)NC(=O)[C@H](C)NC(=O)[C@H](Cc3ccc(F)c(F)c3)NC(=O)[C@H](CC(=O)O)NC1=O)NC(=O)[C@H](C)NC(=O)[C@H](CC(=O)O)NC2=O (stereo partly drawn) [I-259, Ac-PL3-Asp-Ala-B5-Asp-34FF-Ala-Ala-Phe-Val-S8-Phe-Trp-Gln-NH2] | 2.9 | 5.38 | 
CC(=O)N1CCC[C@]12CC=CCCCC1(CCCC=CCCCCCC[C@@](C)(C(=O)N[C@@H](Cc3ccccc3)C(=O)N[C@@H](Cc3c[nH]c4ccccc34)C(=O)N[C@@H](CCC(N)=O)C(N)=O)NC(=O)[C@H](C(C)C)NC(=O)[C@H](Cc3ccccc3)NC(=O)[C@H](C)NC(=O)[C@H](C)NC(=O)[C@H](Cc3ccncc3)NC(=O)[C@H](CC(=O)O)NC1=O)NC(=O)[C@H](C)NC(=O)[C@H](CC(=O)O)NC2=O (stereo partly drawn) [I-272, Ac-PL3-Asp-Ala-B5-Asp-4PyrA-Ala-Ala-Phe-Val-S8-Phe-Trp-Gln-NH2] | 2.46 | 6.00 | 
CC(=O)N1CCC[C@]12CC=CCCCC1(CCCC=CCCCCCC[C@@](C)(C(=O)N[C@@H](Cc3ccc4ccccc4c3)C(=O)N[C@@H](Cc3c[nH]c4ccccc34)C(=O)N[C@@H](CCC(N)=O)C(N)=O)NC(=O)[C@H](C(C)C)NC(=O)[C@H](Cc3ccccc3)NC(=O)[C@H](C)NC(=O)[C@H](C)NC(=O)[C@H](CC(=O)O)NC(=O)[C@H](CC(=O)O)NC1=O)NC(=O)[C@H](C)NC(=O)[C@H](CC(=O)O)NC2=O (stereo partly drawn) [I-278, Ac-PL3-Asp-Ala-B5-Asp-Asp-Ala-Ala-Phe-Val-S8-2NapA-Trp-Gln-NH2] |  | 5.65 | 2.209
CC(=O)N1CCC[C@]12CC=CCCCC1(CCCC=CCCCCCC[C@@](C)(C(=O)N[C@@H](Cc3ccccc3)C(=O)N[C@@H](Cc3c[nH]c4ccccc34)C(=O)N[C@@H](CCC(N)=O)C(N)=O)NC(=O)[C@H](C(C)C)NC(=O)[C@H](Cc3ccccc3)NC(=O)[C@H](C)NC(=O)[C@H](C)NC(=O)[C@H](CC(=O)O)NC(=O)[C@H](CC(=O)O)NC1=O)NC(=O)[C@H](C)NC(=O)[C@H](CCC(=O)O)NC2=O (stereo partly drawn) [I-279, Ac-PL3-Glu-Ala-B5-Asp-Asp-Ala-Ala-Phe-Val-S8-Phe-Trp-Gln-NH2] |  | 5.30 | 1.973
CC(=O)N1CCC[C@]12CC=CCCCC1(CCCC=CCCCCCC[C@@](C)(C(=O)N[C@@H](CC(=O)O)C(=O)N[C@@H](Cc3c[nH]c4ccccc34)C(=O)N[C@@H](CCC(N)=O)C(N)=O)NC(=O)[C@H](C(C)C)NC(=O)[C@H](Cc3ccccc3)NC(=O)[C@H](C)NC(=O)[C@H](C)NC(=O)[C@H](CC(=O)O)NC(=O)[C@H](CC(=O)O)NC1=O)NC(=O)[C@H](C)NC(=O)[C@H](CC(=O)O)NC2=O (stereo partly drawn) [I-283, Ac-PL3-Asp-Ala-B5-Asp-Asp-Ala-Ala-Phe-Val-S8-Asp-Trp-Gln-NH2] | 1.29 | 5.02 | 
CC(=O)N1CCC[C@]12CC=CCCCC1(CCCC=CCCCCCC[C@@](C)(C(=O)N[C@@H](Cc3ccccc3)C(=O)N[C@@H](Cc3c[nH]c4ccccc34)C(N)=O)NC(=O)[C@H](C(C)C)NC(=O)[C@H](Cc3ccccc3)NC(=O)[C@H](C)NC(=O)[C@H](C)NC(=O)[C@H](CC(=O)O)NC(=O)[C@H](CC(=O)O)NC1=O)NC(=O)[C@H](C)NC(=O)[C@H](CC(=O)O)NC2=O (stereo partly drawn) [I-289, Ac-PL3-Asp-Ala-B5-Asp-Asp-Ala-Ala-Phe-Val-S8-Phe-Trp-NH2] |  | 6.20 | 2.242
CC(=O)N1CCC[C@]12CC=CCCCC1(CCCC=CCCCCCC[C@@](C)(C(=O)N[C@@H](Cc3ccccc3)C(=O)N[C@@H](Cc3csc4ccccc34)C(=O)N[C@@H](C)C(N)=O)NC(=O)[C@H](CCC(N)=O)NC(=O)[C@H](Cc3ccccc3)NC(=O)[C@H](C)NC(=O)[C@H](C)NC(=O)[C@H](Cc3ccc4ccccc4c3)NC(=O)[C@H](CC(=O)O)NC1=O)NC(=O)[C@H](C)NC(=O)[C@H](CC(=O)O)NC2=O (stereo partly drawn) [I-296, Ac-PL3-Asp-Ala-B5-Asp-2NapA-Ala-Ala-Phe-Gln-S8-Phe-BztA-Ala-NH2] | 2.94 | 5.72 | 
CC(=O)N1CCC[C@]12CC=CCCCC1(CCCC=CCCCCCC[C@@](C)(C(=O)N[C@@H](Cc3ccccc3)C(=O)N[C@@H](Cc3csc4ccccc34)C(=O)N[C@@H](CCC(N)=O)C(N)=O)NC(=O)[C@H](C(C)C)NC(=O)[C@H](Cc3ccccc3)NC(=O)[C@H](C)NC(=O)[C@H](C)NC(=O)[C@H](Cc3ccc4ccccc4c3)NC(=O)[C@H](CC(=O)O)NC1=O)NC(=O)[C@H](C)NC(=O)[C@H](CC(=O)O)NC2=O (stereo partly drawn) [I-297, Ac-PL3-Asp-Ala-B5-Asp-2NapA-Ala-Ala-Phe-Val-S8-Phe-BztA-Gln-NH2] | 3.29 | 5.24 | 
CC(=O)N1CCC[C@]12CC=CCCCC1(CCCC=CCCCCCC[C@@](C)(C(=O)N[C@@H](Cc3ccccc3)C(=O)N[C@@H](Cc3csc4ccccc34)C(=O)N[C@@H](CCC(N)=O)C(N)=O)NC(=O)[C@H](CO)NC(=O)[C@H](Cc3ccccc3)NC(=O)[C@H](C)NC(=O)[C@H](C)NC(=O)[C@H](Cc3ccc4ccccc4c3)NC(=O)[C@H](CC(=O)O)NC1=O)NC(=O)[C@H](C)NC(=O)[C@H](CC(=O)O)NC2=O (stereo partly drawn) [I-298, Ac-PL3-Asp-Ala-B5-Asp-2NapA-Ala-Ala-Phe-Ser-S8-Phe-BztA-Gln-NH2] | 2.78 | 5.41 | 
CC(=O)N1CCC[C@]12CC=CCCCC1(CCCC=CCCCCCC[C@@](C)(C(=O)N[C@@H](Cc3cccc(Cl)c3)C(=O)N[C@@H](Cc3c[nH]c4ccccc34)C(=O)N[C@@H](CCC(N)=O)C(N)=O)NC(=O)[C@H](C(C)C)NC(=O)[C@H](Cc3ccccc3)NC(=O)[C@H](C)NC(=O)[C@H](C)NC(=O)[C@H](CC(=O)O)NC(=O)[C@H](CC(=O)O)NC1=O)NC(=O)[C@H](C)NC(=O)[C@H](CC(=O)O)NC2=O (stereo partly drawn) [I-310, Ac-PL3-Asp-Ala-B5-Asp-Asp-Ala-Ala-Phe-Val-S8-3C1F-Trp-Gln-NH2] |  | 5.49 | 2.188
CC(=O)N1CCC[C@]12CC=CCCCC1(CCCC=CCCCCCC[C@@](C)(C(=O)N[C@@H](Cc3cccc(Cl)c3)C(=O)N[C@@H](Cc3c[nH]c4ccccc34)C(=O)N[C@@H](CCC(N)=O)C(N)=O)NC(=O)[C@H](C(C)C)NC(=O)[C@H](Cc3ccccc3)NC(=O)[C@H](C)NC(=O)[C@H](C)NC(=O)[C@H](CC(=O)O)NC(=O)[C@H](CC(=O)O)NC1=O)NC(=O)[C@H](C)NC(=O)[C@H](CC(=O)O)NC2=O (stereo partly drawn) [I-311, Ac-PL3-Asp-Ala-B5-Asp-Asp-Ala-Ala-Phe-Val-S8-3C1F-Trp-Gln-NH2] |  | 5.91 | 2.226
CC(=O)N1CCC[C@]12CC=CCCCC1(CCCC=CCCCCCC[C@@](C)(C(=O)N[C@@H](Cc3ccc(Cl)cc3)C(=O)N[C@@H](Cc3c[nH]c4ccccc34)C(=O)N[C@@H](CCC(N)=O)C(N)=O)NC(=O)[C@H](C(C)C)NC(=O)[C@H](Cc3ccccc3)NC(=O)[C@H](C)NC(=O)[C@H](C)NC(=O)[C@H](CC(=O)O)NC(=O)[C@H](CC(=O)O)NC1=O)NC(=O)[C@H](C)NC(=O)[C@H](CC(=O)O)NC2=O (stereo partly drawn) [I-313, Ac-PL3-Asp-Ala-B5-Asp-Asp-Ala-Ala-Phe-Val-S8-4C1F-Trp-Gln-NH2] |  | 5.44 | 2.159
CC(=O)N1CCC[C@]12CC=CCCCC1(CCCC=CCCCCCC[C@@](C)(C(=O)N[C@@H](Cc3ccccc3)C(=O)N[C@@H](Cc3c[nH]c4ccccc34)C(=O)N[C@@H](CCC(N)=O)C(N)=O)NC(=O)[C@H](C(C)C)NC(=O)[C@H](Cc3ccccc3)NC(=O)[C@H](C)NC(=O)[C@H](C)NC(=O)[C@H](CCC(=O)O)NC(=O)[C@H](CC(=O)O)NC1=O)NC(=O)[C@H](C)NC(=O)[C@H](Cc1c[nH]cn1)NC2=O (stereo partly drawn) [I-315, Ac-PL3-His-Ala-B5-Asp-Glu-Ala-Ala-Phe-Val-S8-Phe-Trp-Gln-NH2] |  | 5.00 | 2.359
CC(=O)N1CCC[C@]12CC=CCCCC1(CCCC=CCCCCCC[C@@](C)(C(=O)N[C@@H](Cc3ccccc3)C(=O)N[C@@H](Cc3c[nH]c4ccccc34)C(=O)N[C@@H](CCC(N)=O)C(N)=O)NC(=O)[C@H](C(C)C)NC(=O)[C@H](Cc3c[nH]cn3)NC(=O)[C@H](C)NC(=O)[C@H](C)NC(=O)[C@H](CC(=O)O)NC(=O)[C@H](CC(=O)O)NC1=O)NC(=O)[C@H](C)NC(=O)[C@H](CC(=O)O)NC2=O (stereo partly drawn) [I-321, Ac-PL3-Asp-Ala-B5-Asp-Asp-Ala-Ala-His-Val-S8-Phe-Trp-Gln-NH2] |  | 5.65 | 2.073
